Data published in patent US5281264A, “Salt-forming type dye and ink composition” (Orient Chemical Industries, Ltd., priority 1992, dated 1994).
Each block holds one compound with its values, some of them ahead of it.

Test: Visible absorption of salt-forming type dyes (λmax)
Type: physicochemical
Conditions: spectra of dyes 1 and 4 in methanol solvent
Method: A structure of the dye is shown in the following formula, and hue and maximum absorption wavelength (λmax) are shown in Table. 1.
A structure of each salt-forming type dye is shown in the following formula, respectively. 1. [drawing 5]
Rhodamine 6 GCP (C.I. Basic Red) (140 parts, 0.3 mols) as a cation component was dissolved in water with stirring to prepare a 3% aqueous solution, which was then filtered. Thereafter, this solution (pH 2 to 4) was added dropwise to the dyestuff solution over 50 minutes, followed by stirring at 40° to 50° C. for 3 hours. The solution was heated to 65° C. to form a grit, followed by filtration, rinsing and further drying to obtain 200 parts of a powdered red salt-forming type dye (dye 4) having a structure of the following formula. It was confirmed that the resulting dye is a salt-forming type dye having n (2<n<3). 1. [drawing 6]
It was confirmed that the resulting dye has a structure of the following formula. 1. [drawing 7]
It was confirmed that the resulting dye has a structure of the following formula. 1. [drawing 8]

Salt-forming type dye λmax (maximum absorption wavelength) (listed as Comp. Ex. 1): 422 nm
SMILES: Cc1nn(-c2ccccc2)c(O)c1N=Nc1ccc(-c2ccc(N=Nc3c(C)nn(-c4ccccc4)c3O)cc2S(=O)(=O)O)c(S(=O)(=O)O)c1 [dye 7]

Salt-forming type dye λmax (maximum absorption wavelength) (listed as Comp. Ex. 2): 422 nm
SMILES: Cc1nn(-c2ccccc2)c(O)c1N=Nc1ccc(-c2ccc(N=Nc3c(C)nn(-c4ccccc4)c3O)cc2S(=O)(=O)O)c(S(=O)(=O)O)c1 [dye 8]

Salt-forming type dye λmax (maximum absorption wavelength) (listed as Comp. Ex. 3): 525 nm
SMILES: Cc1nn(-c2ccccc2)c(O)c1N=Nc1ccc(-c2ccc(N=Nc3c(C)nn(-c4ccccc4)c3O)cc2S(=O)(=O)O)c(S(=O)(=O)O)c1 [dye 9]

Salt-forming type dye λmax (maximum absorption wavelength) (listed as Comp. Ex. 4): 578 nm
SMILES: Cc1nn(-c2ccccc2)c(O)c1N=Nc1ccc(-c2ccc(N=Nc3c(C)nn(-c4ccccc4)c3O)cc2S(=O)(=O)O)c(S(=O)(=O)O)c1 [dye 10]
